Results from US20230293535A1, “ERBB/BTK INHIBITORS” (Dizal (Jiangsu) Pharmaceutical Co., Ltd., priority 2018, published 2023).

Assays:
Assay type in all cases: cell-based
[1] = biological target: T1, human EGFR exon 20 H773_V774insNPH (Homo sapiens, UniProt P00533, INS773NPH); assay: EGFR Exon20 NPH insertion cellular phosphorylation inhibition (MSD pEGFR Y1068/total EGFR); conditions: Ba/F3 EGFR NPH ins cells, 4 h compound, p-EGFR(Y1068)/total EGFR;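 also: IL3-independent Ba/F3 cells with constitutively phosphorylated EGFR, compound exposure at 37 °C under 5% CO2, electrochemiluminescent MSD measurement of the p-EGFR to total EGFR ratio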
T1 construct: host or cells: Ba/F3

[2] = biological target: T2, human EGFR exon 20 V769_D770insASV (Homo sapiens, UniProt P00533, INS769ASV); assay: EGFR Exon20 ASV insertion cellular phosphorylation inhibition (MSD pEGFR Y1068/total EGFR); conditions: Ba/F3 EGFR ASV ins cells, 4 h compound, p-EGFR(Y1068)/total EGFR;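 also: electrochemiluminescent readout on an MSD SECTOR Imager, IL3-independent transduced cells in medium with 1% FBS, compound concentration series at 37 °C and 5% CO2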
T2 construct: expressed in transfected cells; host or cells: Ba/F3 (DSMZ ACC-300), lentiviral transduction, puromycin selection, IL3 depletion
T2 sequence (P00533 with tags, fused parts or gaps INS769ASV): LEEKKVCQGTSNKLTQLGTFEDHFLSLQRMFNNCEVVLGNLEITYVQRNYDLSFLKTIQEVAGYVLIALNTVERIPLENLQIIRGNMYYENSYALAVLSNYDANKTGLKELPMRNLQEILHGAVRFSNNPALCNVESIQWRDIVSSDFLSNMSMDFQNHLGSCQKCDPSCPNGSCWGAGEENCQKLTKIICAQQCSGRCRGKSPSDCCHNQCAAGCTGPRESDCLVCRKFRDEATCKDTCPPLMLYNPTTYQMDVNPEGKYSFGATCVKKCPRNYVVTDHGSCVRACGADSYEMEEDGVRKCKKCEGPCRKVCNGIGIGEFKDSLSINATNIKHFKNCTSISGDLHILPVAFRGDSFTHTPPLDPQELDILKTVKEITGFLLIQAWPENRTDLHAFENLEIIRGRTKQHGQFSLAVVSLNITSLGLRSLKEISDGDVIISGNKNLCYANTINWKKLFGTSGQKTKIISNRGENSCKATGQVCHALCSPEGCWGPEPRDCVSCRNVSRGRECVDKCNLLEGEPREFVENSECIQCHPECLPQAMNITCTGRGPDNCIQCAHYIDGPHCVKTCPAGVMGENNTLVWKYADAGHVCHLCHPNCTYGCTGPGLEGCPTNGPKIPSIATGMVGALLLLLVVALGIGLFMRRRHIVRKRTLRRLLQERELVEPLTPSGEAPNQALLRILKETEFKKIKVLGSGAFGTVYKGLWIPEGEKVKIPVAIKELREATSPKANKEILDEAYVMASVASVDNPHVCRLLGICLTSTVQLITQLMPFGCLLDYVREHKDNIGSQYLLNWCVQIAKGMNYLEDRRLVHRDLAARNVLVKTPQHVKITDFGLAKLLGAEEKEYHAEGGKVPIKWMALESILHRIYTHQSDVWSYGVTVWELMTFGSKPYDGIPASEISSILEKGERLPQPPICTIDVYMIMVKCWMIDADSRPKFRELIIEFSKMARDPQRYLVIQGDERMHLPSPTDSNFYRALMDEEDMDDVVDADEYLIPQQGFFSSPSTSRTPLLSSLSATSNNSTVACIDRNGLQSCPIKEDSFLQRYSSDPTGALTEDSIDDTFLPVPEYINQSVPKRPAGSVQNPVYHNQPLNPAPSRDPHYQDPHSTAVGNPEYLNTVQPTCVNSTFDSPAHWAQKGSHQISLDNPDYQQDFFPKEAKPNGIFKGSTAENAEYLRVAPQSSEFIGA

EGFR L858R&T790M = biological target: T3, EGFR L858R&T790M (Homo sapiens, UniProt P00533, L858R/T790M); assay: EGFR L858R and T790M cellular phosphorylation inhibition in NCI-H1975 (MSD); conditions: NCI-H1975 cells, 4 h compound, p-EGFR(Y1068)/total EGFR; read-out: EGFR L858R and T790M mutation IC50;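 also: phosphorylated and total EGFR detected by electrochemiluminescence, cells exposed to compound in medium containing 1% FBS at 37 °C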
T3 construct: host or cells: NCI-H1975
T3 sequence (P00533 25-1210 T790M/L858R): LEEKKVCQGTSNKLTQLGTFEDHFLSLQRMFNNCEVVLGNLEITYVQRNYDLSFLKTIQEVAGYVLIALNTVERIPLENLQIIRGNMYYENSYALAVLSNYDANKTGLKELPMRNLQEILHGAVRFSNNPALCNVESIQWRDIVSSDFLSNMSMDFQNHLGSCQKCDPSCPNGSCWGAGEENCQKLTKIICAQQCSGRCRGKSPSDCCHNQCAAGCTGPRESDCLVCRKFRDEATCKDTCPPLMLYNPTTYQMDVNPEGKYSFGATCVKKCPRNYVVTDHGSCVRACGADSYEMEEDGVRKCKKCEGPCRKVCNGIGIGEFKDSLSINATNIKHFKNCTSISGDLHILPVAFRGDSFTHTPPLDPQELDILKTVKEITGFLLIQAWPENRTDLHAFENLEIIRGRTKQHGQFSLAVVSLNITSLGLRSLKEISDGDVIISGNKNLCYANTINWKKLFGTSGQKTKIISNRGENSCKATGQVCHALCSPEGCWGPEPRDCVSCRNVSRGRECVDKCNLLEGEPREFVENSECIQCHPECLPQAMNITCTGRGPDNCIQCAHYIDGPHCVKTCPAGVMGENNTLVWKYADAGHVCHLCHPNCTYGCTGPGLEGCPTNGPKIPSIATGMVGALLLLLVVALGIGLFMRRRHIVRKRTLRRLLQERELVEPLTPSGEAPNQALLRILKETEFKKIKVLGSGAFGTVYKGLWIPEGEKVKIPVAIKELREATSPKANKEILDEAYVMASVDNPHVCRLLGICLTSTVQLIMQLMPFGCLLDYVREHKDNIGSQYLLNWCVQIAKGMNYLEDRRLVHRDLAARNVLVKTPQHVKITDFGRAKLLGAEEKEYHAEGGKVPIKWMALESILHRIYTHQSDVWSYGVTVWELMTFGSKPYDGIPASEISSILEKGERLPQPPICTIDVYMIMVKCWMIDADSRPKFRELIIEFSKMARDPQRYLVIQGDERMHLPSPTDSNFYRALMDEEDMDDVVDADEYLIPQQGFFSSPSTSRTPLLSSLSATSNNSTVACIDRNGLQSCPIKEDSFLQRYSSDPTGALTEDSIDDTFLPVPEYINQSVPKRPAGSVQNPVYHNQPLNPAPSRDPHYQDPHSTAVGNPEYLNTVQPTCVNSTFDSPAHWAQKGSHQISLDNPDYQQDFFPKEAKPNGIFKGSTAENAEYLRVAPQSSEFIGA

[3] = biological target: T4, human Her2 exon 20 insertion mutation YVMA (Homo sapiens, UniProt P04626, INS775YVMA); assay: Her2 Exon 20 YVMA insertion cellular phosphorylation inhibition (MSD p-Her2 Y1248/total Her2); conditions: Her2 YVMAins cells, 4 h compound;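 also: lentivirally transduced NIH-3T3 cells in 1% FBS medium, electrochemiluminescent MSD read-out, graded compound concentrations at 37 °C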
T4 construct: expressed in transfected cells; host or cells: NIH-3T3, lentiviral transduction, puromycin selection
T4 sequence (P04626 with tags, fused parts or gaps INS775YVMA): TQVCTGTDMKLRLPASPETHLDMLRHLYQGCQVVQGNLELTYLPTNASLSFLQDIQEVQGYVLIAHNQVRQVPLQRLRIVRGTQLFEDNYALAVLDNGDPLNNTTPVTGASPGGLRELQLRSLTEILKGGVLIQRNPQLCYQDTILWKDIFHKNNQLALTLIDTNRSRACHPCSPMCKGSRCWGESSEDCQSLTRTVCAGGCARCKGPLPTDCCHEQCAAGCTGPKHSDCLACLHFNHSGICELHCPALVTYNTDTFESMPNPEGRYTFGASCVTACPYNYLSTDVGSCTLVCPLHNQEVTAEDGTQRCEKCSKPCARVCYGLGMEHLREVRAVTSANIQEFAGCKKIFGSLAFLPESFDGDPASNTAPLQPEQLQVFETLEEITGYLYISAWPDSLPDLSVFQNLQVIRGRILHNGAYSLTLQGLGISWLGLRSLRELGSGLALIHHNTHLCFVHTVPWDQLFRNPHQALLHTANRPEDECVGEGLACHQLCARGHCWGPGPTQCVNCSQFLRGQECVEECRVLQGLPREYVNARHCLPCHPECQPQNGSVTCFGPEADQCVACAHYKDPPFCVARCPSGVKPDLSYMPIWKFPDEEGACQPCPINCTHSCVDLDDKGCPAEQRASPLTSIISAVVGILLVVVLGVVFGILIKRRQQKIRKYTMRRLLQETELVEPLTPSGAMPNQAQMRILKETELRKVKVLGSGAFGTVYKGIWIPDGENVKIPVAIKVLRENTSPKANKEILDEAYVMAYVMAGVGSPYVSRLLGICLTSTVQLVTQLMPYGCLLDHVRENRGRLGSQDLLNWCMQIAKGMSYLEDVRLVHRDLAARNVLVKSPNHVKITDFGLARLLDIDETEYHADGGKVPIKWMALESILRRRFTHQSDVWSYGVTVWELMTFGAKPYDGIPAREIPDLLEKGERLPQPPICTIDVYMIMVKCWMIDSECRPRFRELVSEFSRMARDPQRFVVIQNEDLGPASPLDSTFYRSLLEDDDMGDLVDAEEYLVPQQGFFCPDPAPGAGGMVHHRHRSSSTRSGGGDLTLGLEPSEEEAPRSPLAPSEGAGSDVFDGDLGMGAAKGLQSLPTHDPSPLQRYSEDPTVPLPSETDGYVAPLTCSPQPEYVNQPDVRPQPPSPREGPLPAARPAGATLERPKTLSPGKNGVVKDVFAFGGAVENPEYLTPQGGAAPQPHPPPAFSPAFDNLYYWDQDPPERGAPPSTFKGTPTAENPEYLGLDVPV

WT EGFR = biological target: T5, WT EGFR (Homo sapiens, UniProt P00533); assay: WT EGFR cellular phosphorylation inhibition in A-431 (hEGF stimulated, MSD); conditions: A431 cells, 4 h compound, then 100 ng/ml hEGF 10 min;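 also: electrochemiluminescence read-out of EGFR Tyr1068 phosphorylation expressed as ratio to total EGFR, cells kept in medium with 1% FBS, compounds tested as a concentration series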
T5 construct: host or cells: A-431
T5 sequence (P00533 25-1210): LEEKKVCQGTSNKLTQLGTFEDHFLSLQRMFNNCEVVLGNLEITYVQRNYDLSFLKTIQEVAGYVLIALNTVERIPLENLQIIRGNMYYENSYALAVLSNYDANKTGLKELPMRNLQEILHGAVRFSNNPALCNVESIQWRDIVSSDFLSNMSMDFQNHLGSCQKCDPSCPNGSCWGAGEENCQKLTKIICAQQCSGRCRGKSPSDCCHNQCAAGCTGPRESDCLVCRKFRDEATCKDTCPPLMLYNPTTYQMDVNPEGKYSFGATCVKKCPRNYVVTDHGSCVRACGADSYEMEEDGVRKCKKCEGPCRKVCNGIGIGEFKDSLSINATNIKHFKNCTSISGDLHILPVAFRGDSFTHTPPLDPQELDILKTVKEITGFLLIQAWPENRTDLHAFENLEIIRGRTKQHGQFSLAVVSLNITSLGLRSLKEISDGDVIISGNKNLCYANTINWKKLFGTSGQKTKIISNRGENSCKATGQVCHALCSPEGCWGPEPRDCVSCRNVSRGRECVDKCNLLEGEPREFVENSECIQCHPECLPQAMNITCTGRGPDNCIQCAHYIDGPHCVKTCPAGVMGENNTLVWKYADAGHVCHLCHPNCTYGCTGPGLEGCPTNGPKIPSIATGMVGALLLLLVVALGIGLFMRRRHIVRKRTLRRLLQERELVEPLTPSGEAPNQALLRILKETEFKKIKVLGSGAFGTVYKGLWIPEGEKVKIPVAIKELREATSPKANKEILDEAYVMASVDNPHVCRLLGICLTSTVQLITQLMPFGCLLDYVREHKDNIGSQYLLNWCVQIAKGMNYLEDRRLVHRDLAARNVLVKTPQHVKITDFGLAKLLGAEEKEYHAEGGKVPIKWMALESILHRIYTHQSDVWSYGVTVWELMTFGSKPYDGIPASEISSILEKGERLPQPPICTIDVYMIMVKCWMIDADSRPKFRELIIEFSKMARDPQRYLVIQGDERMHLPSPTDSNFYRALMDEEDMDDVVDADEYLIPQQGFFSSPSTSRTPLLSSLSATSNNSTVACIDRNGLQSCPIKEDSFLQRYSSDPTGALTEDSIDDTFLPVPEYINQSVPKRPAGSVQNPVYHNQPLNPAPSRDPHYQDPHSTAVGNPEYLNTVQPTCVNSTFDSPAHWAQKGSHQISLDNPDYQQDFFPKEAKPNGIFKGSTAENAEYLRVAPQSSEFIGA

Ba/F3 EGFR NPH ins cells = assay: Cell proliferation, Ba/F3 EGFR NPH ins (CellTiter-Glo, 72 h); conditions: Ba/F3 EGFR, 72 h, Ba/F3 EGFR NPH ins, 72 h proliferation; read-out: EGFR Exon20 NPH insertion GI50;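 also: IL3-independent cells carrying constitutively phosphorylated EGFR, compound dilution series, viable cells quantified by ATP luminescence, growth relative to DMSO wells after subtracting pre-dosing (day 0) baseline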
Ba/F3 EGFR ASV ins cells = assay: Cell proliferation, Ba/F3 EGFR ASV ins (CellTiter-Glo, 72 h); conditions: Ba/F3 EGFR, 72 h, Ba/F3 EGFR ASV ins, 72 h proliferation; read-out: EGFR Exon20 ASV insertion GI50;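 also: IL3-independent Ba/F3 cells transduced with EGFR V769_D770insASV, cellular ATP luminescence after compound exposure, growth relative to DMSO control with the day-0 baseline reading subtracted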
[4] = tested on: NCI-H1975 EGFR L858R/T790M cells; assay: Cell proliferation, NCI-H1975 EGFR L858R/T790M (CellTiter-Glo, 72 h); conditions: Homo sapiens, NCI-H1975, 72 h, NCI-H1975, 72 h proliferation; read-out: EGFR L858R and T790M mutation GI50;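 also: viable cells quantified by luciferase-based ATP luminescence, proliferation expressed relative to DMSO-treated wells (100%) after subtracting a parallel plate read at the time of dosing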
[5] = tested on: Her2 exon 20 insertion YVMA transduced NIH-3T3 cell line; assay: Cell proliferation, Her2 YVMAins NIH-3T3 (CellTiter-Glo, 72 h); conditions: Mus musculus, NIH3T3, 72 h, Her2 YVMAins cells, 72 h proliferation; read-out: Her2 Exon 20 YVMA insertion GI50;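 also: viable cells quantified by ATP luminescence, growth over a day-zero baseline plate expressed as percent of DMSO control growth, compound dilution series in 10% FBS medium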
WT EGFR cell line A-431 = assay: Cell proliferation, WT EGFR A431 (CellTiter-Glo, 72 h); conditions: Homo sapiens, A-431, 72 h, A431, 72 h proliferation; read-out: EGFR WT A431 GI50;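 also: proliferation from a luminescent ATP viability signal, expressed as 100 × (treated minus time-zero plate) over (DMSO control minus time-zero plate), cells grown with 10% FBS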
Method: WT or mutant cells were seeded in 384 well plates at appropriate concentrations with corresponding growth media supplemented with 10% FBS, for each experiment, identical plates were prepared in duplicates, and the plates were incubated overnight. On the next day, one of each duplicated plates was dosed with tested compounds at a series of concentrations, and another one of the duplicated plate was analysied for G0 value. The dosed plates were incubate for another 72 h at 37° C. with 5% CO2 and the number of viable cells in each well of the G0 plates or the dosed plates were measured by CellTiter-Glo® Luminescent Cell Viability Assay (Promega). This assay is a luminescent method for determining the number viable cells through measurement of cellular ATP concentration by detection of luciferase activity. Detection reagents (15 µl) was dispensed into per well, and the plates were incubate for 30 min at room temperature. Then, the luminescence in each well was measured using the Envision plate reader (PerkinElmer). The percentage of proliferation was calculated based on the formula: %Proliferation= 100 × (G3 value of sample well-Go value)/(G3 value of DMSO control-Go value).

OCI-LY-10 cells = assay: BTK (wt) cell proliferation, OCI-LY-10 (CellTiter-Glo, 72 h); conditions: Homo sapiens, OCI-Ly10, 72 h, OCI-LY-10 cells, 72 h, CellTiter-Glo; read-out: BTK WT OCI-LY-10 GI50;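 also: viable cells quantified via cellular ATP luminescence, proliferation given as percent of DMSO control after subtracting a duplicate plate read at time of dosing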
Method: OCI-LY-10 at 3,750 cells/well, TMD-8 and Ri-1 at 2,000 cells/well, and DB at 1,250 cells/well, respectively, were sorted into 384-well plates in RPMI1640 medium with 10% FBS. After overnight incubation, all cells were incubated with compound at a series of concentrations. Meanwhile, a duplicated plate of each cell line was prepared for measuring G0 value. The dosed plates were further incubated for 72 hours and the number of viable cells was measured by CellTiter-Glo® Luminescent Cell Viability Assay (Promega), a luminescent method for determining the number of viable cells through measurement of cellular ATP concentration using Envision plate reader (PerkinElmer). The percentage of proliferation was calculated as: % Proliferation = 100 × (G3 value of sample well - G0 value)/(G3 value of DMSO control - G0 value).

TMD-8 cells = assay: BTK (wt) cell proliferation, TMD-8 (CellTiter-Glo, 72 h); conditions: Homo sapiens, TMD8, 72 h, TMD-8 cells, 72 h, CellTiter-Glo; read-out: BTK WT TMD-8 GI50;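 also: viable cells quantified by ATP-based luminescence, proliferation expressed as percent of DMSO control after subtracting a time-zero baseline plate read at dosing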
Ri-1 cells = assay: BTK (wt) cell proliferation, Ri-1 (CellTiter-Glo, 72 h); conditions: Ri-1, 72 h, Ri-1 cells, 72 h, CellTiter-Glo; read-out: BTK WT Ri-1 GI50;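 also: viable cells quantified as cellular ATP luminescence, proliferation normalized to a time-zero plate and the DMSO control, compounds tested across a dilution series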
DB cells = assay: BTK (wt) cell proliferation, DB (CellTiter-Glo, 72 h); conditions: Homo sapiens, DB, DB cells, CellTiter-Glo, read-out: Non-BCR activated DB GI50;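 also: DB cells in 384-well plates given a dilution series of compound, viable cells read by ATP luminescence, growth expressed versus DMSO control after subtracting a time-zero plate reading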

Row | IC50 [1] | IC50 [2] | IC50 (EGFR L858R&T790M) | IC50 [3] | IC50 (WT EGFR) | GI50 (Ba/F3 EGFR NPH ins cells) | GI50 (Ba/F3 EGFR ASV ins cells) | GI50 [4] | GI50 (WT EGFR cell line A-431) | GI50 (OCI-LY-10 cells) | Compound | GI50 [5] | GI50 (TMD-8 cells) | GI50 (Ri-1 cells) | GI50 (DB cells)
1 | 43.5 nM | 40.5 nM | 1.3 nM | 9.5 nM | 103 nM | 123 nM | 99.5 nM | 32.4 nM | 57.8 nM | 45.3 nM | C=CC(=O)Nc1cc(Nc2ncnc(Nc3cc(Cl)c(F)cc3C(C)(C)O)n2)c(OC)cc1N(C)CCN1CCCCC1 [Compound 26, N-(5-(4-(5-chloro-4-fluoro-2-(2-hydroxypropan-2-yl)phenylamino)-1,3,5-triazin-2-ylamino)-4-methoxy-2-(methyl(2-(piperidin-1-yl)ethyl)amino)phenyl)acrylamide] | 253 nM | 12.6 nM | 50.5 nM | > 3000 nM
2 | 28.3 nM | 19.4 nM | 0.7 nM | 15.6 nM | 34.8 nM | 57.9 nM | 64.7 nM | 5.2 nM | 26.2 nM | 17.7 nM | C=CC(=O)Nc1cc(Nc2ncnc(Nc3cc(F)c(F)cc3C(C)(C)O)n2)c(OC)cc1N1CC[C@@H](N(C)C)C1 [Compound 27, (R)-N-(5-(4-(4,5-difluoro-2-(2-hydroxypropan-2-yl)phenylamino)-1,3,5-triazin-2-ylamino)-2-(3-(dimethylamino)pyrrolidin-1-yl)-4-methoxyphenyl)acry lamide] | 106 nM | 11.6 nM | 120 nM | > 3000 nM
3 | 50.6 nM | 21.7 nM | 1.4 nM | 15.2 nM | 42.1 nM | 67.7 nM | 58.2 nM | 8.9 nM | 21.2 nM | 119 nM | C=CC(=O)Nc1cc(Nc2ncnc(Nc3cc(Cl)c(F)cc3C(C)(C)O)n2)c(OC)cc1N1CC[C@@H]2CN(C)C[C@@H]21 [Compound 28, N-(5-(4-(5-chloro-4-fluoro-2-(2-hydroxypropan-2-yl)phenylamino)-1,3,5-triazin-2-ylamino)-4-methoxy-2-((3aR,6aR)-5-methylhexahydropyrrolo[3,4-b]pyrrol-1 (2H)-yl)phenyl)acrylamide] | 114 nM | 34 nM | 230 nM | > 3000 nM
4 | 22.9 nM | 17.4 nM | 1 nM | 7.6 nM | 45.3 nM | 52.7 nM | 45.2 nM | 6.9 nM | 20.1 nM | 35.5 nM | C=CC(=O)Nc1cc(Nc2ncnc(Nc3cc(Cl)c(F)cc3C(C)(C)O)n2)c(OC)cc1N(C)CCN1CCCC1 [Compound 29, N-(5-(4-(5-chloro-4-fluoro-2-(2-hydroxypropan-2-yl)phenylamino)-1,3,5-triazin-2-ylamino)-4-methoxy-2-(methyl(2-(pyrrolidin-1-yl)ethyl)amino)phenyl)acrylamide] | 68.3 nM | 11.3 nM | 44.8 nM | > 3000 nM
5 | 11.1 nM | 5.7 nM | 0.5 nM | 5.5 nM | 13.2 nM | 19.3 nM | 25.9 nM | 3.7 nM | 12.4 nM | 13.1 nM | C=CC(=O)Nc1cc(Nc2ncnc(Nc3cc(Cl)c(F)cc3C(C)(C)O)n2)c(OC)cc1N(C)C[C@H]1CCCN1C [Compound 30, (R)-N-(5-(4-(5-chloro-4-fluoro-2-(2-hydroxypropan-2-yl)phenylamino)-1,3,5-triazin-2-ylamino)-4-methoxy-2-(methyl((1-methylpyrrolidin-2-yl)methyl)amino)phenyl) acrylamide] | 47.5 nM | 17.8 nM | 28.6 nM | > 3000 nM
6 | 13.8 nM | 5 nM | 0.5 nM | 4.3 nM | 5.5 nM | 47.9 nM | 9.2 nM | 4.2 nM | 4.2 nM | 30 nM | C=CC(=O)Nc1cc(Nc2ncnc(Nc3cc(Cl)c(F)cc3C(C)(C)O)n2)c(OC)cc1N1CCC[C@@H]1CN(C)C [Compound 31, (R)-N-(5-(4-(5-chloro-4-fluoro-2-(2-hydroxypropan-2-yl)phenylamino)-1,3,5-triazin-2-ylamino)-2-(2-((dimethylamino)methyl)pyrrolidin-1-yl)-4-methoxyphenyl)acrylamide] | 60.1 nM | 7.18 nM | 59.9 nM | > 3000 nM
7 | 14.8 nM | 3.7 nM | 0.4 nM | 7.8 nM | 11 nM | 19.1 nM | 19.3 nM | 1.8 nM | 6 nM | 0.29 nM | C=CC(=O)Nc1cc(Nc2ncnc(Nc3cc4ccn(C)c4cc3C(C)(C)O)n2)c(OC)cc1N(C)CCN(C)C [Compound 32, N-(2-((2-(dimethylamino)ethyl)(methyl)amino)-5-(4-(6-(2-hydroxypropan-2-yl)-1-methyl-1H-indol-5-ylamino)-1,3,5-triazin-2-ylamino)-4-methoxyphenyl)acrylamide] | 35.2 nM | 0.26 nM | 0.71 nM | > 3000 nM
8 | 6.2 nM | 4.4 nM | 0.5 nM | 4.2 nM | 6 nM | 16.4 nM | 17.6 nM | 1.6 nM | 7.5 nM | 7.6 nM | C=CC(=O)Nc1cc(Nc2ncnc(Nc3cc(F)c(C4CC4)cc3C(C)(C)O)n2)c(OC)cc1N(C)CCN(C)C [Compound 34, N-(5-(4-(4-cyclopropyl-5-fluoro-2-(2-hydroxypropan-2-yl)phenylamino)-1,3,5-triazin-2-ylamino)-2-((2-(dimethylamino)ethyl)(methyl)amino)-4-methoxyphenyl)acrylamide] | 21.1 nM | 12.3 nM | 16.6 nM | > 3000 nM
9 | 9.2 nM | 5.4 nM | 0.5 nM | 4.7 nM | 13.9 nM | 22.2 nM | 24.3 nM | 1.5 nM | 21.9 nM | 986 nM | C=CC(=O)Nc1cc(Nc2ncnc(Nc3cc(F)c(F)cc3C(C)(C)O)n2)c(OC)cc1N1CCOC[C@@H]1CN(C)C [Compound 35, (S)-N-(5-(4-(4,5-difluoro-2-(2-hydroxypropan-2-yl)phenylamino)-1,3,5-triazin-2-ylamino)-2-(3-((dimethylamino)methyl)morpholino)-4-methoxyphenyl) acrylamide] | 39.4 nM | 377 nM | 699 nM | > 3000 nM
10 | 10.9 nM | 13 nM | 0.9 nM | 5 nM | 19.3 nM | 22 nM | 25.7 nM | 2.1 nM | 13.6 nM | 15.1 nM | C=CC(=O)Nc1cc(Nc2ncnc(Nc3cc(Cl)c(F)cc3C(C)(C)O)n2)c(OC)cc1N1CCOC[C@@H]1CN(C)C [Compound 40, (S)-N-(5-(4-(5-chloro-4-fluoro-2-(2-hydroxypropan-2-yl)phenylamino)-1,3,5-triazin-2-ylamino)-2-(3-((dimethylamino)methyl)morpholino)-4-methoxyphenyl)acrylamide] | 43.4 nM | 15.1 nM | 11.9 nM | > 3000 nM
